Values quoted from earlier work as cited in patent publication US20050226908A1, “Efficacious composition of a benzimidazole, an avermectin and praziquantel and related methods of use” (Akzo Nobel N.V., priority 2004, published 2005).

Tested on: parasites
Details: fenbendazole alone, one time treatment at 100 or 150 mg/kg; JAVMA 180, 1:53 (1982) and Am J Vet Res 39, 11:1799 (1978)

Compound: COC(=O)Nc1nc2ccc(Sc3ccccc3)cc2[nH]1 [fenbendazole]
- Efficacy of one time treatment: not efficacious
